Measurements reported in ChEMBL document CHEMBL5321275, “Discovery, Optimization, and Evaluation of Novel N-(Benzimidazol-5-yl)-1,3,4-thiadiazol-2-amine Analogues as Potent STAT3 Inhibitors for Cancer Treatment” (J Med Chem, 2023).
Values after ≈ are worked out from the molar mass of the structure shown. Active and inactive are the calls of the source. The rule behind the calls is not given here.

Columns and labels:
[1] = Volume of distribution at steady state in ICR mouse at 5 mg/kg, iv measured upto 96 hrs by HPLC-MS/MS analysis; format: ADME, organism-based; details: in vivo, read-out: Vdss
HEK-Blue IL-6 = test: Inhibition of IL-6/JAK/STAT3 signalling pathway in HEK-Blue IL-6 cells at 10 uM incubated for 16 hrs by QUANTI-blue assay relative to control; format: cell-based; details: Homo sapiens
HCT-116 = test: Antiproliferative activity against human HCT-116 cells assessed as inhibition of cell growth measured after 96 hrs by MTT assay; format: functional, cell-based; details: HCT-116, 96 h
DU-145 [2] = test: Induction of apoptosis in human DU-145 cells assessed as induction of PARP cleavage at upto 10 uM measured after 48 hrs by […]; format: functional, cell-based
MDA-MB-231 [3] = test: Induction of apoptosis in human MDA-MB-231 cells assessed as early apoptotic cells at 1 uM measured after 48 hrs by annexin V-FITC and PI staining based flow cytometry analysis (reference value: 6.7%); format: functional
[4] = Drug concentration in ICR mouse plasma at 5 mg/kg, iv measured at 2 mins; format: ADME, organism-based
MDA-MB-231 [5] = test: Induction of cell cycle arrest in human MDA-MB-231 cells assessed as accumulation of cells at G0/G1 phase measured after 24 hrs by PI staining based flow cytometry analysis; format: functional; details: dose <= 10.0 µM
[6] = biological target: T1, Signal transducer and activator of transcription 1-alpha/beta (Homo sapiens) (UniProt P42224); test: Inhibition of STAT1 phosphorylation in human DU-145 cells at 10 uM measured after 24 hrs by Western blot analysis; format: cell-based
T1 sequence (whole entry): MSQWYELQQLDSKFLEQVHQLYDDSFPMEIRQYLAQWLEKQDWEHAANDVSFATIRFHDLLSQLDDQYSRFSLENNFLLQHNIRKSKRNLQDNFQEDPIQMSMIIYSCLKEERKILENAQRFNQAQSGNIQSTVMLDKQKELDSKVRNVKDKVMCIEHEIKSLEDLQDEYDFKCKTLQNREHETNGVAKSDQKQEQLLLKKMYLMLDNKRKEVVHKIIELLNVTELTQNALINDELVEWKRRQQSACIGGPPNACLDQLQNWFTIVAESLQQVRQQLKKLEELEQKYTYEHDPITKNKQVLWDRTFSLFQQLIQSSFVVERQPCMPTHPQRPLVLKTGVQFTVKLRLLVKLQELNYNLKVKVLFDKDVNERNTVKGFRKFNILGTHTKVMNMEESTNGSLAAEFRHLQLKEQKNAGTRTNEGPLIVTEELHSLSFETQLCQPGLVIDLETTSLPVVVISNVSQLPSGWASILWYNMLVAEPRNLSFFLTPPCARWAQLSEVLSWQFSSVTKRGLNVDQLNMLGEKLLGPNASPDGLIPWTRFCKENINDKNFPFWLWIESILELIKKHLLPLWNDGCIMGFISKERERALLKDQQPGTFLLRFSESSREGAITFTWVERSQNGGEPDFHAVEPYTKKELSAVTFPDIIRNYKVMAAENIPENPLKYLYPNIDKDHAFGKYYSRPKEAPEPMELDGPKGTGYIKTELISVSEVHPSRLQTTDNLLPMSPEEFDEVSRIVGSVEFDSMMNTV

[7] = Solubility of compound in water incubated for 10 mins; format: physicochemical
[8] = biological target: T2, Signal transducer and activator of transcription 3 (Homo sapiens, UniProt P40763); test: Inhibition of STAT3 in human DU-145 cells assessed as downregulation of Bcl-2 expression at upto 10 uM measured after 24 hrs; format: cell-based
T2 sequence (P40763 whole entry): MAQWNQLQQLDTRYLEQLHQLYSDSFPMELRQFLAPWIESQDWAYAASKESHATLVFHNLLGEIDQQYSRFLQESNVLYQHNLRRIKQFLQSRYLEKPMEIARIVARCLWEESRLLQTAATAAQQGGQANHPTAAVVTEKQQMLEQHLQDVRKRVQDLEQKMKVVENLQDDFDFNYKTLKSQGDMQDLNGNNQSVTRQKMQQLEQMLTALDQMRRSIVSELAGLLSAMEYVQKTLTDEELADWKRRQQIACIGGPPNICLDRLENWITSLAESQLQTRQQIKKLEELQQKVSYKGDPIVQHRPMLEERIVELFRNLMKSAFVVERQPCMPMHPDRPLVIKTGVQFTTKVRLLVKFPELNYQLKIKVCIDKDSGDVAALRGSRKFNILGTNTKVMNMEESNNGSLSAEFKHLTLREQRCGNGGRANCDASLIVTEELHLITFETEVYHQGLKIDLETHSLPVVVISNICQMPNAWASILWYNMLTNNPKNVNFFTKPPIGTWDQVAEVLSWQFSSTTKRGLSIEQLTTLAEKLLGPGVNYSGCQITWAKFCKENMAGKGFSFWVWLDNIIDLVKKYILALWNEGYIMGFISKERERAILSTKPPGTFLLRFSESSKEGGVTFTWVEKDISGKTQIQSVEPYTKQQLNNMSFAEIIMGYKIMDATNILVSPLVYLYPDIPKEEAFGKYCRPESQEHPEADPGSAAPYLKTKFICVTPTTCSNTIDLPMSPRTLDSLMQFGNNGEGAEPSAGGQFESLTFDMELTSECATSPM

MDA-MB-231 [9] = test: Antiproliferative activity against human MDA-MB-231 cells assessed as inhibition of cell growth at 10 uM measured after 96 hrs by MTT assay relative to control; format: functional
MDA-MB-231 [10] = test: Induction of apoptosis in human MDA-MB-231 cells assessed as induction of PARP cleavage at upto 10 uM measured after 48 hrs by […]; format: functional, cell-based
[11] = Volume of distribution at steady state in ICR mouse at 50 mg/kg, po measured upto 96 hrs by HPLC-MS/MS analysis; format: ADME, organism-based; details: in vivo
[12] = MRT (0 to t) in ICR mouse at 5 mg/kg, iv measured upto 96 hrs by HPLC-MS/MS analysis; format: ADME, organism-based; details: in vivo
[13] = Tmax in ICR mouse at 50 mg/kg, po measured upto 96 hrs by HPLC-MS/MS analysis; format: ADME, organism-based; details: in vivo
[14] = Oral bioavailability in ICR mouse at 50 mg/kg measured upto 96 hrs by HPLC-MS/MS analysis; format: ADME, organism-based; details: in vivo
[15] = Toxicity in Balb/c mouse assessed as effect on body weight loss at 50 mg/kg, ip administered once daily for 16 days; format: organism-based; details: in vivo, 384 h, time 16 day
[16] = Half life in ICR mouse at 5 mg/kg, iv measured upto 96 hrs by HPLC-MS/MS analysis; format: ADME, organism-based; details: in vivo
[17] = Half life in ICR mouse at 50 mg/kg, po measured upto 96 hrs by HPLC-MS/MS analysis; format: ADME, organism-based; details: in vivo
[18] = MRT (0 to t) in ICR mouse at 50 mg/kg, po measured upto 96 hrs by HPLC-MS/MS analysis; format: ADME, organism-based; details: in vivo
DU-145 [19] = test: Induction of apoptosis in human DU-145 cells assessed as early apoptotic cells at 1 uM measured after 48 hrs by annexin V-FITC and PI staining based flow cytometry analysis (reference value: 2.5%); format: functional
[20] = Drug concentration in ICR mouse plasma at 50 mg/kg, po measured after 2 to 8 hrs; format: ADME, organism-based; details: in vivo, time 2-8 hrs
[21] = Cmax in ICR mouse at 5 mg/kg, iv measured upto 96 hrs by HPLC-MS/MS analysis; format: ADME, organism-based; set-up: dose 5 mg/kg, time < 96 hrs, route iv; details: in vivo
[22] = Metabolic stability in mouse liver microsomes assessed as intrinsic clearance in presence of NADPH/UDPGA; format: ADME, Microsome; details: read-out: CLH
[23] = Toxicity in Balb/c mouse assessed as serious adverse effect at 50 mg/kg, ip administered once daily for 16 days; format: organism-based; details: in vivo, 384 h, time 16 day
MDA-MB-231 [24] = test: Induction of apoptosis in human MDA-MB-231 cells assessed as cell apoptotic percentage at 10 uM measured after 48 hrs by annexin V-FITC and PI staining based flow cytometry analysis relative to control; format: functional
MDA-MB-231 [25] = test: Induction of apoptosis in human MDA-MB-231 cells assessed as late apoptotic cells at 5 uM measured after 48 hrs by annexin V-FITC and PI staining based flow cytometry analysis (reference value: 3.1%); format: functional
[26] = Tmax in ICR mouse at 5 mg/kg, iv measured upto 96 hrs by HPLC-MS/MS analysis; format: ADME, organism-based; details: in vivo
[27] = AUC (0 to infinity) in ICR mouse at 5 mg/kg, iv measured upto 96 hrs by HPLC-MS/MS analysis; format: ADME, organism-based; set-up: dose 5 mg/kg, time < 96 hrs, route iv; details: in vivo
[28] = biological target: T2, Signal transducer and activator of transcription 3; test: Inhibition of STAT3 dimerization in human DU-145 cells assessed as increase in amount of STAT3 monomer at upto 10 uM measured after 12 hrs; format: cell-based
[29] = Clearance in ICR mouse at 5 mg/kg, iv measured upto 96 hrs by HPLC-MS/MS analysis; format: ADME, organism-based; details: in vivo

Vd [1]: 19 L/kg | IC50 (HCT-116): 2190 nM | concentration at 2 min [4]: 549 ng/mL | inhibition [6]: inactive | solubility at 10 min [7]: 1.04 µg/mL (≈ 1.75 µM) | inhibition [8]: Active | Vdss [11]: 40.17172 L/kg | MRT last at 96 h [12]: 14.9 h | Tmax [13]: 4.67 h | bioavailability [14]: 52% | half-life [16]: 9 h | half-life [17]: 9.94 h | MRT last at 96 h [18]: 17.1 h | Cp [20]: 771 ng/mL | Cmax [21]: 667 ng/mL | microsomal CLint [22]: 3.68 µL/min/mg | Tmax [26]: 3 min | AUC(0-inf) [27]: 3450 ng·h/mL | inhibition [28]: Active | clearance [29]: 24.2 mL/min/kg
SMILES: CN1CCN(c2cc3c(cc2Nc2nnc(-c4ccc(C(F)(F)F)cc4)s2)nc(-c2ccc(F)cc2)n3C2CC2)CC1
inhibition (HEK-Blue IL-6): 101% | Activity (DU-145 [2]): Active | Activity (MDA-MB-231 [3]): 5.9% | Activity (MDA-MB-231 [5]): Dose-Dependent Effect | inhibition at 10 µM (MDA-MB-231 [9]): 90.1% | Activity (MDA-MB-231 [10]): Active | Activity [15]: Non-Toxic | Activity (DU-145 [19]): 2.1% | Activity [23]: Non-Toxic | Activity (MDA-MB-231 [24]): 79.3% | Activity (MDA-MB-231 [25]): 10.7%
